In article PMC11239673, “Structural basis for the bi-specificity of USP25 and USP28 inhibitors” (EMBO Reports, 2024):
Several values for one entry are separate records, joined by “and”; a condition that tells them apart may be missing. Equal entries are not always repeated. Where two headings read alike, the source gives them in different places.

What was measured:
USP25Δtip E373Q = target: T1, USP25Δtip E373Q (Homo sapiens, UniProt Q9UHP3, DEL465-537/E373Q/INS464GSGSGS); assay: Ub-Rho110 dose–response assay, USP25Δtip E373Q; assay type: biochemical
T1 construct: 6xHis or thioredoxin-6xHis (N, cleaved yes); made in house; host or cells: E. coli BL21star (DE3)
T1 sequence (Q9UHP3 with tags, fused parts or gaps E373Q/DEL465-477/P478G/DEL482-535/A536G/P537S limits assumed): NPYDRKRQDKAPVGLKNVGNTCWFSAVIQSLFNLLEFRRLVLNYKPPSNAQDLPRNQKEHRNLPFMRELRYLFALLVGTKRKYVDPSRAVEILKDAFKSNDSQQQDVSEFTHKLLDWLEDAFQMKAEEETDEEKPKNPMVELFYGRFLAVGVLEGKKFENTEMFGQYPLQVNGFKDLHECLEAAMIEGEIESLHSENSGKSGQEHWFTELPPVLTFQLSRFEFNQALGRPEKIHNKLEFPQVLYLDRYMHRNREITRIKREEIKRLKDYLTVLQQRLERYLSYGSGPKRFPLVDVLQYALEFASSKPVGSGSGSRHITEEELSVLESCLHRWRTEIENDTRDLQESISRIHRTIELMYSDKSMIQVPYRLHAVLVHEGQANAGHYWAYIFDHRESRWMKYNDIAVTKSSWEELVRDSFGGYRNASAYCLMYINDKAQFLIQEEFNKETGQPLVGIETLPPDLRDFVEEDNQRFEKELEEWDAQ

USP28Δtip WT = target: T2, USP28Δtip WT (Homo sapiens, UniProt Q96RU2, INS458SGSG); assay: Ub-Rho110 dose–response assay, USP28Δtip wt; assay type: biochemical
T2 sequence (Q96RU2 with tags, fused parts or gaps INS458SGSG): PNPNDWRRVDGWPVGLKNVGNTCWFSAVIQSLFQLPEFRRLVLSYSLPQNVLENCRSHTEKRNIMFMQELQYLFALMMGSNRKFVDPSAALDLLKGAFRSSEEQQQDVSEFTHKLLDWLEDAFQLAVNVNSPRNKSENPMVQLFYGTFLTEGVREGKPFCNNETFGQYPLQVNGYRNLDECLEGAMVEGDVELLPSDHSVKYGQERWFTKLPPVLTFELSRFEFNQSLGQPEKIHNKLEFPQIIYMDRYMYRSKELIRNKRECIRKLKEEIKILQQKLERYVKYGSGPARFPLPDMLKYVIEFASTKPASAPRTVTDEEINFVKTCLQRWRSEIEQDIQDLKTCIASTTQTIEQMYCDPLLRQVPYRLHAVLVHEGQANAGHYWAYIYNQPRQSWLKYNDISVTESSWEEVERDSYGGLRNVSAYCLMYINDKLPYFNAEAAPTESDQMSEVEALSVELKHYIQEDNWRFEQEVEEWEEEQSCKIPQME

USP25fl = target: T3, USP25fl (Homo sapiens, UniProt Q9UHP3); assay: SEC-MALS analysis of the oligomeric state of USP25fl after inhibitor incubation; conditions: for MW [kDa]: SEC-MALS molar mass of USP25-fl
T3 sequence (Q9UHP3 1-1055): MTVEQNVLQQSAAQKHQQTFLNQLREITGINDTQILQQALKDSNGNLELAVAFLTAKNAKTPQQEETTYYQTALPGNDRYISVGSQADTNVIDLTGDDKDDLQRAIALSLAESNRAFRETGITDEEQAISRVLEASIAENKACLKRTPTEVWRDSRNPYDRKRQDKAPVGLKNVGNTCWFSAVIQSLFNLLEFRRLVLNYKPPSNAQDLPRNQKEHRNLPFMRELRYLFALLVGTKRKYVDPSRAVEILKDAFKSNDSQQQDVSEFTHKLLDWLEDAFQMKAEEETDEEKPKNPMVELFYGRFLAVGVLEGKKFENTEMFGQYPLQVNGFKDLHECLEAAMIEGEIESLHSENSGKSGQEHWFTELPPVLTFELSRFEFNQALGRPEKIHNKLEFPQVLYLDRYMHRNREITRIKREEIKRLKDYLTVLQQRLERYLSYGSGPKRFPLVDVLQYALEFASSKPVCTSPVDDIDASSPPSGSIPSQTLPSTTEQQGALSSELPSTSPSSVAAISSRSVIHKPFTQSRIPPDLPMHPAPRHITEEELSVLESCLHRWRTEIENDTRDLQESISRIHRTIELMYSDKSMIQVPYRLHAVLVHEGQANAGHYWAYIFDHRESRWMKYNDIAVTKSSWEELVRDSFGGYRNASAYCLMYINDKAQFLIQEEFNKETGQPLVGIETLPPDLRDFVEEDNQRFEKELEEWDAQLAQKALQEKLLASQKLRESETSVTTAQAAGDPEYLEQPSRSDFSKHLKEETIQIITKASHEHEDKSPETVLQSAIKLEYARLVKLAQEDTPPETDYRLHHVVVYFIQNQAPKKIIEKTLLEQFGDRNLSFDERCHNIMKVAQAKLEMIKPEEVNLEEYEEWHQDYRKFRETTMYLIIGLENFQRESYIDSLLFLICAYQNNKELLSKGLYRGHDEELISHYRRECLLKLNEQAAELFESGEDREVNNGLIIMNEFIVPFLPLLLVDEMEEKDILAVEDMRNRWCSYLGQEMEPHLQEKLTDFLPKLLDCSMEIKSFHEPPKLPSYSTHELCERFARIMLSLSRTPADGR

USP28Δtip E366A = target: T4, USP28Δtip E366A (Homo sapiens, UniProt Q96RU2, E366A/INS458SGSG); assay: Ub-Rho110 dose–response assay, USP28Δtip E366A; assay type: biochemical; conditions: for IC50: USP28 - E366A
T4 sequence (Q96RU2 with tags, fused parts or gaps E366A/INS458SGSG): T2 sequence (Q96RU2 with tags, fused parts or gaps INS458SGSG)

[1] = read-out: relative inhibition [%] - USP28 - WT
[2] = 20 µM USP25, 60 µM inhibitor, mean of experiments
[3] = 20 µM USP25, 60 µM inhibitor, single experiments

## Cc1ccc2c(N)c(C(=O)NC3CCc4cc(N5CC6CCC(C5)N6)ccc4C3)sc2n1 (stereo not shown) [FT206]
USP25Δtip E373Q; p value, inhibitor IC50 on USP25 E373Q compared with USP25 WT
  t-test vs. USP25 WT control - E373Q: 8.243E-06
USP25Δtip E373Q; read-out: relative inhibition [%] - USP25 - E373Q, inhibitor 100.00 µM, single replicates
  inhibition at 100 µM: 48.3%
USP28Δtip WT; USP28 - WT, single replicates, read-out: IC50 of each replicate curve (unlabelled line above mean and SD)
  IC50: 0.184 µM and 0.209 µM and 0.213 µM and 0.0889 µM and 0.0911 µM and 0.101 µM
USP28Δtip WT; USP28Δtip 20 nM, Ub-Rho110 250 nM, 15 min preincubation, average ± SD, n ≥ 5, read-out: IC50, USP28 variants, WT
  IC50: 0.15 ± 0.06 µM
USP28Δtip WT; [1]
  inhibition at 11.11 µM: 98.6%
  inhibition at 33.33 µM: 99.3%
  inhibition at 100 µM: 99.6%
  inhibition at […]: 97.5% and 91.4% and 73.1%
USP25fl; 20 µM USP25, 60 µM inhibitor, mean of 4 experiments
  avg. Mol mass (10.5-14.5 ml), mean: 298.950
USP25fl; [2]
  dimer (fraction), mean: 0.777
  tetramer (fraction), mean: 0.223
USP25fl; [3]
  avg. Mol mass (10.5-14.5 ml): 298.000 and 299.300 and 295.500 and 303.000
  dimer (fraction): 0.781 and 0.775 and 0.791 and 0.760
  tetramer (fraction): 0.219 and 0.225 and 0.209 and 0.240
USP25fl; 20 µM USP25fl, 60 µM inhibitor, 45 min, average of ≥3 experiments ± SD, DMSO control 26.2 ± 1.5
  % dimer: 77.7 ± 1.1%
USP25fl; 20 µM USP25fl, 60 µM inhibitor, 45 min, average of ≥3 experiments ± SD, DMSO control 73.8 ± 1.5
  % tetramer: 22.3 ± 1.1%
USP25fl; 20 µM USP25fl, 60 µM inhibitor, 45 min, average of ≥3 experiments ± SD, DMSO control 424.7 ± 3.8
  Ø Mw: 299.0 ± 2.7 kDa
USP25fl; 10 µM USP25-fl + 5 µM inhibitor, elution volume V [mL] in the cell to the left
  MW [kDa]: 638.16 kDa and 634.82 kDa and 630.15 kDa and 628.44 kDa
USP25fl; 10 µM USP25-fl + 10 µM inhibitor, elution volume V [mL] in the cell to the left
  MW [kDa]: 647.07 kDa and 645.88 kDa and 640.88 kDa and 638.88 kDa
USP25fl; 10 µM USP25-fl + 20 µM inhibitor, elution volume V [mL] in the cell to the left
  MW [kDa]: 747.51 kDa and 739.67 kDa and 732.41 kDa and 732.02 kDa
USP25fl; SEC-MALS trace, 10 µM USP25-fl + 20 µM inhibitor, elution volume V [mL] in the cell to the left
  dRI: 3.84E-07 and 3.46E-07 and 3.10E-07 and 2.78E-07
USP28Δtip E366A
  t-test vs. USP28 WT control - E366A: 4.894E-04
USP28Δtip E366A; mean of replicates, read-out: IC50, mean and SD
  IC50: 17.3 µM
USP28Δtip E366A; single replicates, read-out: IC50 of each replicate curve (unlabelled line above mean and SD)
  IC50: 14.5 µM and 15.5 µM and 12.1 µM and 14.2 µM and 25.7 µM and 21.9 µM
USP28Δtip E366A; read-out: relative inhibition [%] - USP28 - E366A
  inhibition at 100 µM: 64.6%
